The numbers were not newly measured in US20240050950A1, “GRADIENT-BASED MICROFLUIDIC CIRCUIT, DEVICE, AND METHOD FOR PERFORMING AN ASSAY” (priority 2020, published 2024), which cites them from elsewhere.

Where a name gives a salt, the structure may show the parent alone. Square brackets hold non-standard residues; d marks the D form. Peptide text beside a SMILES is read from it. * marks the point of attachment. dPhe(4-NHCONH2) = NC(=O)Nc1ccc(C[C@@H](N)C(=O)O)cc1; Dihydroorotyl(S) = O=C1C[C@@H](C(=O)*)NC(=O)N1; dPhe(4-Cl) = N[C@H](Cc1ccc(Cl)cc1)C(=O)O; Phe(4-NH2) = Nc1ccc(C[C@H](N)C(=O)O)cc1; d2Nal = N[C@H](Cc1ccc2ccccc2c1)C(=O)O; Lys(iPr) = CC(C)NCCCC[C@H](N)C(=O)O; d3Pal = N[C@H](Cc1cccnc1)C(=O)O

The conditions of the first series: Table 1, antimicrobial agents/drugs; cited from earlier work.
`c1ccc2nc3ccccc3nc2c1` [Phenazine]: the Molar volume is listed as 144.1 ± 3.0 cm^3.
Take `C[C@@H]1C[C@H]2CC[C@H](O2)[C@H](C)C(=O)O[C@@H](C)C[C@@H]2CC[C@@H](O2)[C@@H](C)C(=O)O[C@H](C)C[C@H]2CC[C@H](O2)[C@H](C)C(=O)O[C@@H](C)C[C@@H]2CC[C@@H](O2)[C@@H](C)C(=O)O1` [Nonactin (Ammonium ionophore), Nonactin]: the Molar volume is listed as 707.9 ± 3.0 cm^3.
As to `C[C@@H]1O[C@@H]1P(=O)(O)O` [Phosphomycin (Fosfomycin), Phosphomycin], the Molar volume is 88.4 ± 5.0 cm^3.
With `O=C(C1CCCCC1)N1CC(=O)N2CCc3ccccc3C2C1` (stereo not shown) [Praziquantel], the Molar volume is 254.2 ± 5.0 cm^3.
As to `CO[C@@]1(NC(=O)CSCC#N)C(=O)N2C(C(=O)O)=C(CSc3nnnn3C)CS[C@@H]21` [Cefmetazole], the Molar volume is on record as 268.3 ± 7.0 cm^3.
On to `C[C@@H]1[C@H](O)[C@@H](C)/C=C/C=C/CC/C=C/C=C/C=C/C=C/C(O[C@H]2O[C@H](C)[C@@H](O)[C@H](N)[C@@H]2O)CC2O[C@](O)(CC(O)C(O)CCC(O)CC(O)CC(O)CC(=O)O[C@H]1C)CC(O)C2C(=O)O` (stereo partly shown) [Nystatin (Fungicidin, Mycostatin), Nystatin], for which the Molar volume was 696.1 ± 5.0 cm^3.
As for `OC[C@H]1NC[C@@H](O)[C@@H](O)[C@@H]1O` [1-Deoxymannojirimycin], the Molar volume is listed as 112.0 ± 3.0 cm^3.
As for `C/C=C(\C)C(=O)N[C@@H](c1ccccc1)[C@@H](O)C(=O)O[C@H]1C[C@@]2(O)[C@@H](OC(=O)c3ccccc3)[C@@H]3[C@]4(OC(C)=O)CO[C@@H]4C[C@H](O)[C@@]3(C)C(=O)[C@H](OC(C)=O)C(=C1C)C2(C)C` [Cephalomannine (NSC 318735), Cephalomannine], the Molar volume was 609.9 ± 5.0 cm^3.
For `O=C1C=C2C(=CCOC2O)O1` (stereo not shown) [Patulin], the Molar volume is given as 101.3 ± 5.0 cm^3.
Take `CC(=O)OCC1=C(C(=O)O)N2C(=O)[C@@H](N)[C@H]2SC1` [7-Aminocephalosporanic acid (7-ACA), 7-Aminocephalosporanic acid]: the Molar volume is listed as 170.0 ± 5.0 cm^3.
As to `C[C@@H]1Cc2c(Cl)cc(C(=O)N[C@@H](Cc3ccccc3)C(=O)O)c(O)c2C(=O)O1` [Ochratoxin A], the Molar volume is on record as 283.2 ± 3.0 cm^3.
On to `CC(/C=C/[C@@]1(C)[C@H](C)CCC(=O)[C@@H]1C)=C\Cc1c(O)c(Cl)c(C)c(C=O)c1O` [Ascochlorin (Ilicicolin D, NSC 287492), Ascochlorin], for which the Molar volume is recorded as 337.6 ± 3.0 cm^3.
Turning to `CN[C@@H]1C[C@H]2O[C@@](C)([C@@H]1OC)n1c3ccccc3c3c4c(c5c6ccccc6n2c5c31)C(=O)NC4` [Staurosporine (Staurosporine), Staurosporine], the Molar volume is on record as 298.7 ± 7.0 cm^3.
In the case of `COc1cccc2c1C(=O)c1c(O)c3c(c(O)c1C2=O)C[C@@](O)(C(=O)CO)C[C@@H]3O[C@H]1C[C@H](N)[C@H](O[C@@H]2CCCCO2)[C@H](C)O1` [Pirarubicin (THP), Pirarubicin], the Molar volume is given as 413.3 ± 5.0 cm^3.
`CC[C@@]1(O)C(=O)OCc2c1cc1n(c2=O)Cc2cc3ccccc3nc2-1` [(S)-(+)-Camptothecin (Camptothecin), (S)-(+)-Camptothecin]: the Molar volume is reported as 230.2 ± 5.0 cm^3.
For `CC(C)/N=c1\cc2n(-c3ccc(Cl)cc3)c3ccccc3nc-2cc1Nc1ccc(Cl)cc1` [Clofazimine], the Molar volume is reported as 366.0 ± 7.0 cm^3.
Consider `CC(C)(O/N=C(\C(=O)N[C@@H]1C(=O)N2C(C(=O)[O-])=C(C[n+]3ccccc3)CS[C@H]12)c1csc(N)n1)C(=O)O` [Ceftazidime], for which the Molar volume is on record as 330.2 ± 7.0 cm^3.
Turning to `N=C1Sc2ccccc2C2=NCCCN12` [PD 404, 182, PD 404,182], the Molar volume is 150.9 ± 7.0 cm^3.
For Colistin, the Molar volume is recorded as 916.9 ± 5.0 cm^3.
Consider `Clc1ccccc1C(c1ccccc1)(c1ccccc1)n1ccnc1` [Clotrimazole], for which the Molar volume is reported as 302.7 ± 7.0 cm^3.
With `CC[C@H]1OC(=O)[C@H](C)[C@@H](O[C@H]2C[C@@](C)(OC)[C@@H](O)[C@H](C)O2)[C@H](C)[C@@H](O[C@@H]2O[C@H](C)C[C@H](N(C)C)[C@H]2O)[C@](C)(OC)C[C@@H](C)C(=O)[C@H](C)[C@@H](O)[C@]1(C)O` [Clarithromycin], the Molar volume is on record as 631.9 ± 5.0 cm^3.
Regarding `CO[C@@H]1[C@@H](O[C@@H]2O[C@H](C)[C@@H](O[C@H]3C[C@@](C)(O)[C@@H](OC(=O)CC(C)C)[C@H](C)O3)[C@H](N(C)C)[C@H]2O)[C@@H](CC=O)C[C@@H](C)[C@@H](O)/C=C/C=C/C[C@@H](C)OC(=O)C[C@H]1OC(C)=O` [Josamycin], the Molar volume is on record as 684.5 ± 5.0 cm^3.
On to `Oc1cc(Cl)ccc1Oc1ccc(Cl)cc1Cl` [Irgasan], for which the Molar volume is 194.3 ± 3.0 cm^3.
For the compound `CCN1CCN(c2cc3c(cc2F)c(=O)c(C(=O)O)cn3C2CC2)CC1` [Enrofloxacin (Baytril), Enrofloxacin], the Molar volume is 259.3 ± 3.0 cm^3.
As for `COC1=CC(=O)C[C@@H](C)[C@]12Oc1c(Cl)c(OC)cc(OC)c1C2=O` [Griseofulvin], the Molar volume was 255.1 ± 5.0 cm^3.
On to `CO/N=C(\C(=O)N[C@@H]1C(=O)N2C(C(=O)O)=C(CSc3nc(=O)c(=O)[nH]n3C)CS[C@H]12)c1csc(N)n1` [Ceftriaxone], for which the Molar volume is reported as 281.7 ± 7.0 cm^3.
Regarding `COc1cc([C@@H]2c3cc4c(cc3[C@@H](O[C@@H]3O[C@@H]5CO[C@@H](C)O[C@H]5[C@H](O)[C@H]3O)[C@H]3COC(=O)[C@H]23)OCO4)cc(OC)c1O` [Etoposide], the Molar volume is 378.5 ± 5.0 cm^3.
Turning to `C[C@H](CCC(=O)O)C[C@H](C)C[C@H](C)C(=O)/C=C(\O)[C@H](C)C[C@H](C)C/C=C/[C@@H](C)[C@@H](O)[C@@H](C)[C@@H](O)C[C@@H]1CC[C@@](C)([C@H]2CC[C@@](C)([C@@H](C)O)O2)O1` [Ionomycin], the Molar volume is reported as 661.0 ± 3.0 cm^3.
In the case of `N[C@@H]1CONC1=O` [D-Cycloserine], the Molar volume is given as 79.8 ± 3.0 cm^3.

Still in this series, the particulars now being: Table 2, anticancer drugs; cited from earlier work.
In the case of `CS(=O)(=O)OCCCCOS(C)(=O)=O` [Busulfan], the Molar volume is reported as 182.3 ± 3.0 cm^3.
Consider `Nc1ccn([C@@H]2O[C@H](CO)[C@@H](O)C2(F)F)c(=O)n1` [Gemcitabine Hydrochloride], for which the Molar volume is reported as 142.3 ± 7.0 cm^3.
On to `Cc1nccn1CC1CCc2c(c3ccccc3n2C)C1=O` (stereo not shown) [Zofran (Ondansetron Hydrochloride), Ondansetron Hydrochloride], for which the Molar volume is 230.1 ± 7.0 cm^3.
Regarding `CC(=O)N[C@H](Cc1ccc2ccccc2c1)C(=O)N[C@H](Cc1ccc(Cl)cc1)C(=O)N[C@H](Cc1cccnc1)C(=O)N[C@@H](CO)C(=O)N[C@@H](Cc1ccc(NC(=O)[C@@H]2CC(=O)NC(=O)N2)cc1)C(=O)N[C@H](Cc1ccc(NC(N)=O)cc1)C(=O)N[C@@H](CC(C)C)C(=O)N[C@@H](CCCCNC(C)C)C(=O)N1CCC[C@H]1C(=O)N[C@H](C)C(N)=O` [Degarelix] (Ac-[d2Nal][dPhe(4-Cl)][d3Pal]S[Phe(4-NH2)](Dihydroorotyl(S))[dPhe(4-NHCONH2)]L[Lys(iPr)]P[dA]-NH2), the Molar volume is listed as 1231.3 ± 3.0 cm^3.
With `CN(C)C(=O)c1cc2cnc(Nc3ccc(N4CCNCC4)cn3)nc2n1C1CCCC1` [Kisqali (Ribociclib), Ribociclib], the Molar volume is 635.1 ± 5.0 cm^3.
Consider `COc1cc2c(cc1O)CCN[C@]21CS[C@@H]2c3c(OC(C)=O)c(C)c4c(c3[C@H](COC1=O)N1[C@@H]2[C@H]2c3c(cc(C)c(OC)c3O)C[C@@H]([C@@H]1O)N2C)OCO4` [Trabectedin (Yondelis), Trabectedin], for which the Molar volume was 489.2 ± 5.0 cm^3.
Take `N=C(N)NCc1cccc([131I])c1` [Azedra]: the Molar volume is 148.6 ± 7.0 cm^3.
Turning to `O=NN(CCCl)C(=O)NC1CCCCC1` [Lomustine], the Molar volume is given as 173.0 ± 7.0 cm^3.
`CNC(=O)c1ccc(N2C(=S)N(c3ccc(C#N)c(C(F)(F)F)c3)C(=O)C2(C)C)cc1F` [Enzalutamide (Xtandi), Enzalutamide]: the Molar volume is 310.0 ± 5.0 cm^3.
Regarding `CC(C)(C#N)c1cc(Cn2cncn2)cc(C(C)(C)C#N)c1` [Anastrozole], the Molar volume is 270.2 ± 7.0 cm^3.
Take `O=P1(NCCCl)OCCCN1CCCl` (stereo not shown) [Ifex (Ifosfamide), Ifosfamide]: the Molar volume is given as 195.6 ± 5.0 cm^3.
Regarding `COc1cccc2c1C(=O)c1c(O)c3c(c(O)c1C2=O)C[C@@](O)(C(C)=O)C[C@@H]3O[C@H]1C[C@H](N)[C@H](O)[C@H](C)O1` [Cerubidine (Daunorubicin Hydrochloride), Daunorubicin Hydrochloride], the Molar volume is recorded as 339.4 ± 5.0 cm^3.
With `C/C(=C\c1csc(C)n1)[C@@H]1C[C@@H]2O[C@]2(C)CCC[C@H](C)[C@H](O)[C@@H](C)C(=O)C(C)(C)[C@@H](O)CC(=O)N1` [Ixabepilone], the Molar volume was 451.5 ± 3.0 cm^3.
`CC(C)C[C@H](NC(=O)[C@H](Cc1ccccc1)NC(=O)c1cnccn1)B(O)O` [Bortezomib (Velcade), Bortezomib]: the Molar volume was 316.5 ± 3.0 cm^3.
On to `CCCCCOC(=O)Nc1nc(=O)n([C@@H]2O[C@H](C)[C@@H](O)[C@H]2O)cc1F` [Capecitabine (Xeloda), Capecitabine], for which the Molar volume is reported as 240.5 ± 7.0 cm^3.

Staying with this series, now noted: Table 2, anticancer drugs; listed as Ribociclib; cited from earlier work.
As for `CN(C)C(=O)c1cc2cnc(Nc3ccc(N4CCNCC4)cn3)nc2n1C1CCCC1` [Kisqali (Ribociclib), Ribociclib], the Molar volume is listed as 311.4 ± 7.0 cm^3.

Staying with this series, now noted: Table 3, antifungal drugs and other molecules; cited from earlier work.
Bleomycin: the Molar volume is 887.0 ± 5.0 cm^3.
Regarding `c1ccc2[nH]c(-c3cscn3)nc2c1` [2-(4-Thiazolyl)benzimidazole], the Molar volume is 143.0 ± 3.0 cm^3.
For `O=C[C@H](O)[C@@H](O)[C@@H](O)[C@H](O)CO` [Galactose], the Molar volume is on record as 104.0 cm^3.
For the compound `CC(C)N1CCN(c2ccc(OCC3COC(Cn4cncn4)(c4ccc(Cl)cc4Cl)O3)cc2)CC1` (stereo not shown) [Terconazole], the Molar volume is recorded as 391.5 ± 7.0 cm^3.
For `O=[N+]([O-])C1(Br)COCOC1` [5-Bromo-5-nitro-1,3-dioxane], the Molar volume is reported as 115.3 ± 5.0 cm^3.
Turning to `CN(C)c1ccc(C(=C2C=CC(=[N+](C)C)C=C2)c2ccc(N(C)C)cc2)cc1` [Gentian Violet], the Molar volume was 340.9 ± 5.0 cm^3.
On to `Nc1ncnc2c1ccn2[C@@H]1O[C@H](CO)[C@@H](O)[C@H]1O` [Tubercidin], for which the Molar volume is 139.5 ± 7.0 cm^3.
